According to patent publication US20230407377A1, “CRISPR/CAS SCREENING SYSTEM MATERIALS AND METHODS” (University of Copenhagen, priority 2020, published 2023):

Experiments:
SW620 (MLH1+/+) cells = test: MUT:WT* ratio of MLH1 loss-of-function variants without or with 6-thioguanine; format: cell-based, human; conditions: E448STOP, Q537STOP; 2 μM 6-thioguanine until Day 11
Description: Data represent ratios normalized to the value at Day 2 and are means of 3 independent experiments +/−SD. Two-tailed paired t-test were used to calculate the significance in all cases. NS=not significant. ** indicates p<0.01. *** indicates p<0.001. The figure and results are further described in the Examples.
Cultures of human colon cancer SW620 (MLH1+/+) cells were nucleofected with SpCas9 protein and synthetic gRNA/tracrRNA targeting genomic sites in MLH1 overlapping the sites to be mutated along with an oligonucleotide comprising the mutation of interest (MUT), which was as a known loss-of-function variant (E448STOP or Q537STOP), and an oligonucleotide comprising a corresponding synonymous mutation (WT*). At Day 2 after nucleofection, an aliquot of the cell culture was analysed by PCR amplification of the genomic target site and NGS of the PCR product to determine the ratio of MUT to WT* alleles in the cell population. Thereafter, cells were split in two cultures, and cultured in the absence (−) or presence (+) of 2 μM 6-thioguanine until Day 11, where after the mutation analysis was repeated for each culture.

[1] = test system: H358 cells xenografted into nude mice; test: H358 xenograft in nude mice treated with vehicle or AMG 510: tumor volume and 12D versus 12C* ratio; format: in vivo; conditions: treated once per day from two weeks after xenografting, versus vehicle
Procedure: (A) A culture of human lung cancer H358 cells was nucleofected with SpCas9 protein and synthetic gRNA/tracrRNA targeting the oncogenic 12C mutation in KRAS present in these cells along with an oligonucleotide comprising the mutation of interest, which was another oncogenic KRAS mutation (12D), and an oligonucleotide comprising a synonymous mutation ([…]). At Day 2 after transfection, an aliquot of the cell culture was analysed by PCR amplification of the genomic target site and NGS of the PCR product to determine the ratio of 12D versus 12C* alleles in the cell population. […] (B) Determination of tumor volumes over time. (C) Representative mice photographed on day 40. […]
A culture of human lung cancer H358 cells was nucleofected with SpCas9 protein and synthetic gRNA/tracrRNA targeting the oncogenic 12C mutation in KRAS present in these cells along with an oligonucleotide comprising the mutation of interest, which was another oncogenic KRAS mutation (12D), and an oligonucleotide comprising a synonymous mutation (12C*). At Day 2 after transfection, an aliquot of the cell culture was analysed by PCR amplification of the genomic target site and NGS of the PCR product to determine the ratio of 12D versus 12C* alleles in the cell population. […] (B) Tumor volumes were determined over time and, (C) representative mice photographed on day 40.

MCF10A-BRCA2+/− cells = test: MUT:WT* ratio of BRCA2 variants in cells cultured without or with PARP inhibitor; format: cell-based, human; conditions: 2 nM Talazoparib until Day 12, ratios normalized to Day 2
Procedure: At Day 2 after transfection, an aliquot of each culture was analysed by PCR amplification of the genomic target site and NGS of the PCR product to determine the ratio of MUT to WT* alleles in the cell population. Thereafter, cells were cultured in the absence or presence of 2 nM Talazoparib (a PARP inhibitor) until Day 12, whereafter the mutation analysis was repeated. Data represent ratios
normalized to the value at Day 2 and are means of 3 independent experiments +/−SD. Two-tailed unpaired t-tests were used to calculate the significance in all cases. NS=not significant. ** indicates p<0.01. **** indicates p<0.0001.
BRCA2 loss-of-function mutations sensitize cells to inhibitors of PARP, which are used in clinical trials/in the clinic as a synthetic lethal personalized therapy for cancer patients with BRCA inactivating mutations. We analysed one neutral BRCA2 mutation (D946V) and two loss-of-function BRCA2 mutations (I2627N, Y2660C) in breast epithelial MCF10A-BRCA2+/− cells cultured in the absence or presence of PARP inhibitor. […] Furthermore, the method will thereby also be useful for the purpose of drug development, drug testing and stratification of cancer patients in clinical trials with new drugs.

MCF10A (ATM+/+) cells = test: MUT:WT* ratio of ATM loss-of-function variants without or with Talazoparib; format: cell-based, human; conditions: R23STOP, Q218STOP, E365STOP; 2 nM Talazoparib until Day 12
Description: Data represent ratios normalized to the value at Day 2 and show a representative experiment. The figure and results are further described in the Examples.
Cultures of human breast epithelial MCF10A (ATM+/+) cells expressing SpCas9 were transfected with synthetic gRNA/tracrRNA targeting genomic sites in ATM overlapping the sites to be mutated along with an oligonucleotide comprising the mutation of interest (MUT), which was as known loss-of-function variants (R23STOP, Q218STOP or E365STOP), and an oligonucleotide comprising a corresponding synonymous mutation (WT*). At Day 2 after transfection, an aliquot of each culture was analysed by PCR amplification of the genomic target site and NGS of the PCR product to determine the ratio of MUT to WT* alleles in the cell population. Thereafter, cells were cultured in the absence (−) or presence (+) of 2 nM Talazoparib (a PARP inhibitor) until Day 12, where after the mutation analysis was repeated.

Hep3B cells = test: FGFR4 550M to WT* ratio in cells cultured without or with Fisogatinib; format: cell-based, human; conditions: 0.72 μM Fisogatinib until Day 16; ratios normalized to Day 2
Description: Data represent ratios normalized to the value at Day 2 and are means of 3 independent experiments +/−SD. Two-tailed paired t-tests were used to calculate the significance in all cases. NS=not significant. ** indicates p<0.01. The figure and results are further described in the Examples.
Cultures of human liver cancer Hep3B cells, which harbor FGF19 focal amplification, were nucleofected with SpCas9 protein and synthetic gRNA/tracrRNA targeting a genomic site overlapping the site to be mutated along with an oligonucleotide comprising the mutation of interest (V550M) in the Fisogatinib-binding site of FGFR4 and an oligonucleotide comprising a synonymous mutation (WT*). At Day 2 after nucleofection, an aliquot of the cell culture was analysed by PCR amplification of the genomic target site and NGS of the PCR product to determine the ratio of 550M to WT* alleles in the cell population. Thereafter, cells were split in two cultures, and cultured in the absence (−) or presence (+) of 0.72 μM Fisogatinib until Day 16, whereafter the mutation analysis was repeated on each culture. […] Such applications of the method are important for clinical management as well as for drug development in the pharmaceutical industry.

In the case of `Nc1nc2nc[nH]c2c(=S)[nH]1` [6-thioguanine], the “ability of MLH1 to elicit apoptosis in response to 6-thioguanine in cells with loss-of-function mutations” value (SW620 (MLH1+/+) cells) is reported as “disabled”.

With `C=CC(=O)N1CCN(c2nc(=O)n(-c3c(C)ccnc3C(C)C)c3nc(-c4c(O)cccc4F)c(F)cc23)[C@@H](C)C1` [AMG 510] the “bulk tumor size (tumor volumes over time)” value [1] was “greatly reduced”.

For `Cn1ncnc1[C@H]1c2n[nH]c(=O)c3cc(F)cc(c23)N[C@@H]1c1ccc(F)cc1` [Talazoparib], the “effect on cells with the neutral BRCA2 mutation (MUT:WT* ratio)” value (MCF10A-BRCA2+/− cells; D946V) was “no effect”, the “cell proliferation and/or survival of cells with the loss-of-function BRCA2 mutations” value (MCF10A-BRCA2+/− cells; I2627N, Y2660C) was “greatly decreased” and the “sensitivity of cells with loss-of-function ATM mutations to PARP inhibitor killing” value (MCF10A (ATM+/+) cells) was “sensitized them to PARP inhibitor killing”.

`C=CC(=O)N[C@H]1CCOC[C@H]1Nc1ncc2cc(-c3c(Cl)c(OC)cc(OC)c3Cl)ccc2n1` [Fisogatinib] was tested, and the “selection of cells harboring the FGFR4-V550M mutation relative to WT* (resistance)” value (Hep3B cells) was “strongly selected for”.
